From patent publication US12729377B2, “RNAi agents and compositions for inhibiting expression of angiopoietin-like 3 (ANGPTL3), and methods of use” (Arrowhead Pharmaceuticals, Inc., priority 2017, dated 2026)
In the oligonucleotide strings, read from the 5' end, every base follows the letter of its sugar. An asterisk marks phosphorothioate; unmarked linkages are phosphodiester. Other units and linkages are bracketed, terminal groups are in braces. A string of capitals states the bases alone. {NAG37} = N-acetyl-galactosamine tridentate targeting ligand (NAG37); [invAb] = inverted abasic unit; m = 2'-O-methyl; f = 2'-fluoro

What was measured:
ANGPTL3 gene [1] = experiment: Example 10: serum triglycerides in mice; type: in vivo; details: 0.5 mg/kg single SC injection day 1, female C57bl/6 mice, n=3, ratio to D5W control
Description: (§1) To assess the in vivo activity of further ANGPTL3 RNAi agents that are designed to target position 304 on the ANGPTL3 gene, six- to eight-week-old female C57bl/6 mice were used. Pre-dose serum samples were taken at day −1 after a four hour fast. At day 1, each mouse was given a single subcutaneous administration of 200 μl containing 0.5 mg/kg (mpk) of an ANGPTL3 RNAi agent in D5W (dextrose in 5% water), or control (D5W) with no RNAi agent, according to the dosing groups recited in Table 47.
(§2) Each of the RNAi agents included a modified sequence and an N-acetyl-galactosamine-containing targeting ligand conjugated to the 5′ terminal end of the sense strand. (See Tables 3, 4, and 5 for modified sequences and targeting ligand structures). As noted above, each of the ANGPTL3 RNAi agents dosed in this study included nucleotide sequences designed to target the ANGPTL3 gene at position 304. The injections were performed between the skin and muscle (i.e. subcutaneous injections) into the loose skin over the neck and shoulder area. Three (3) mice in each group were tested (n=3). Serum was collected on days 8, 15, 22, 29, and for some groups on day 36 (i.e., Groups 1, 2, and 9-13 only). Mice were fasted for four hours prior to each collection. ANGPTL3 protein levels in serum were measured by ELISA assay (R&D Systems), according to the manufacturer's recommendations. Triglycerides, total cholesterol, high-density lipoprotein (HDL), and low-density lipoprotein (LDL) in serum were measured on a Cobas® Integra 400 (Roche Diagnostics), according to the manufacturer's recommendations.
(§3) The ANGPTL3 protein levels, triglyceride levels, total cholesterol levels, HDL levels, and LDL levels for each animal were normalized. For normalization, the level of ANGPTL3 protein, triglyceride, HDL, and total cholesterol, respectively, for each animal at a time point, was divided by the pre-treatment level of expression in that animal (in this case at day −1) to determine the ratio of expression “normalized to pre-treatment.” Expression at a specific time point was then normalized to the D5W control group by dividing the “normalized to pre-treatment” ratio for an individual animal by the mean “normalized to pretreatment” ratio of all mice in the D5W control group.

ANGPTL3 protein = experiment: Example 10: serum ANGPTL3 protein by ELISA in mice; type: in vivo; details: 0.5 mg/kg single SC injection day 1, female C57bl/6 mice, n=3, ratio to D5W control
Description: as §1, §2, §3

ANGPTL3 gene [2] = experiment: Example 10: serum HDL in mice; type: in vivo; details: 0.5 mg/kg single SC injection day 1, female C57bl/6 mice, n=3, ratio to D5W control
Description: as §1, §2, §3

ANGPTL3 gene [3] = experiment: Example 10: serum LDL in mice; type: in vivo, C57bl/6 mice; details: 0.5 mg/kg sc
Description: as §1, §2, §3

ANGPTL3 gene [4] = experiment: Example 10: serum total cholesterol in mice; type: in vivo; details: 0.5 mg/kg single SC injection day 1, female C57bl/6 mice, n=3, ratio to D5W control
Description: as §1, §2, §3

“AD05791: RNAi agent duplex: antisense AM07624-AS, sense AM07234-SS (antisense mU*fA*mCfUmGfAmUfCmAfAmAfUmAfUmGfUmUfGmA*fG*mC; sense {NAG37}*[invAb]*mGmCmUmCmAmAmCmAfUfAfUmUmUmGmAmUmCmAmGmUmA*[invAb])” was tested. Which “Average Triglycerides Normalized to Pre-Treatmen and Control” value (“Average Triglycerides Normalized” below) (ANGPTL3 gene [1]; Day 8) did it give?
The value was 1.125.

And the “Average Triglycerides Normalized” value (ANGPTL3 gene [1]; Day 15)?
The value was 0.930.

What about the “Average Triglycerides Normalized” value (ANGPTL3 gene [1]; Day 22) of the same substance?
The value was 1.631.

What about the “Average Triglycerides Normalized” value (ANGPTL3 gene [1]; Day 29) of the same substance?
Its value is 0.854.

And the “Average ANGPTL3 Protein Normalized to Pre-Treatment and Control” value (shortened to “Average ANGPTL3 Protein Normalized”) (ANGPTL3 protein; Day 8)?
The value was 0.145.

And the “Average ANGPTL3 Protein Normalized” value (ANGPTL3 protein; Day 15)?
The value was 0.170.

And the “Average ANGPTL3 Protein Normalized” value (ANGPTL3 protein; Day 22)?
The value was 0.214.

What about the “Average ANGPTL3 Protein Normalized” value (ANGPTL3 protein; Day 29) of the same substance?
The value was 0.246.

And the “Average HDL Normalized to Pre-Treatment and Control” value (“Average HDL Normalized” below) (ANGPTL3 gene [2]; Day 8)?
The value was 0.632.

And the “Average HDL Normalized” value (ANGPTL3 gene [2]; Day 15)?
The value was 0.674.

What about the “Average HDL Normalized” value (ANGPTL3 gene [2]; Day 22) of the same substance?
Its value is 0.563.

And the “Average HDL Normalized” value (ANGPTL3 gene [2]; Day 29)?
Its value is 0.679.

What about the “Avg LDL Normalized to Pre-Treatment and Control” value (from here on “Avg LDL Normalized”) (ANGPTL3 gene [3]; Day 8) of the same substance?
Its value is 0.878.

And the “Avg LDL Normalized” value (ANGPTL3 gene [3]; Day 15)?
The value was 0.744.

What about the “Avg LDL Normalized” value (ANGPTL3 gene [3]; Day 22) of the same substance?
Its value is 0.848.

What about the “Avg LDL Normalized” value (ANGPTL3 gene [3]; Day 29) of the same substance?
Its value is 0.755.

And the “Average Total Cholesterol Normalized to Pre-Treatment and Control” value (shortened to “Average Total Cholesterol Normalized”) (ANGPTL3 gene [4]; Day 8)?
The value was 0.664.

What about the “Average Total Cholesterol Normalized” value (ANGPTL3 gene [4]; Day 15) of the same substance?
Its value is 0.694.

And the “Average Total Cholesterol Normalized” value (ANGPTL3 gene [4]; Day 22)?
The value was 0.631.

And the “Average Total Cholesterol Normalized” value (ANGPTL3 gene [4]; Day 29)?
Its value is 0.677.
